Earlier results on one substance are cited in patent publication US9814782B2, “Modified antibody in which motif comprising cysteine residue is bound, modified antibody-drug conjugate comprising the modified antibody, and production method for same” (Alteogen Inc., priority 2012, dated 2017).

For the data set the following is noted: known value; read-out: IC50 value in a cell proliferation inhibition assay.

On to Auristatin, for which the IC50 is 0.2 to 0.3 nM.
